Reference: patent US8372810B2, “Anti-tumor drug, medicament, composition, and use thereof” (Gene Signal International SA, priority 2007, dated 2013)
Values joined by “and” are separate entries in the source; they are usually repeats but may differ in a detail not shown here. Equal entries are not always repeated. “Also recorded” adds a separate entry of the source.

Legend:
[1] = system: HUVEC; test: Wound assay, migration of human endothelial cells; assay type: cell-based; conditions: 18 hours; 497C-T2 0.83 and 1.66 μM; 497C-T3 2.4 μM; 497C-T4 3.52 μM; 497C-T5 3.65 μM; C-terminal tail 4.92 μM
Protocol: Cell migration was tested by the wound assay described by Sato and Rifkin (J Cell Biol. 1988; 107:1199) with few modifications. HUVEC grown in growth medium EGM-2MV (Cambrex) were seeded in 24-well plates at 80 000 cells per well in 500 μL of growth medium and grown to confluence at 37° C. in a humidified atmosphere containing 5% CO2. Cells were scrapped with a plastic tip on one line only. After wounding, the culture medium was changed for fresh medium (control, FIG. 3a) or fresh medium supplemented with: • FIG. 3b: 497C-T2 20 μg/mL (0.83 μM) • FIG. 3c: 497C-T2 40 μg/mL (1.66 μM) • FIG. 3d: 497C-T3 48 μg/mL (2.4 μM) • FIG. 3e: 497C-T4 60 μg/mL (3.52 μM) • FIG. 3f: 497C-T5 61 μg/mL (3.65 μM) • FIG. 3g: C-terminal tail 63 μg/mL (4.92 μM)
After 18 hours of culture, cells were observed and photographed under the inverted microscope (Analysis, Olympus, Rungis, France).

[2] = system: NCI H460 human tumor; test: NCI H460 human tumor xenograft in Swiss Nude mice, tumor growth; assay type: in vivo; set-up: key to MRTV D28 / MRTV D12 / MRTV D14 / MRTV D16 / MRTV D18 / MRTV D20 / MRTV D22 / MRTV D24 / MRTV D26: ratio of mean tumor volume at day t to volume at injection (D12)
Protocol: NCI H460 cells were cultured as adherent cells in complete RPMI 1640 medium (Ref. CM1RRM08-01, batch No. 623615, Eurobio, France) containing 2 mM L-Glutamine, adjusted to 4.5 g/L glucose (Ref. G7528, batch No. 033K0121, Sigma, France) and supplemented with 10 mM HEPES (Ref. H0887, batch No. 113K2338, Sigma, France), 1.0 mM sodium pyruvate (Ref. CSTVAT00-0U, batch No. 520818, Sigma, France) and 10% fetal calf serum (FCS; Ref. CVFSVF00-01, batch No. S13021, Eurobio, France) under a 37° C., 5% CO2 humidified atmosphere. They were amplified in 75 cm^2-flasks to reach 90×10^6 cells.
At D0, NCI H460 cells (human lung carcinoma) were collected from 75 cm^2-flasks by removing the medium and adding 3 ml of trypsine-EDTA (Ref. CEZTDA00-0U, batch No. 633920, Eurobio, France). After 5 min of incubation at 37° C., cells were detached from the plastic and the enzymatic reaction was stopped by adding 3 ml of RPMI 1640 medium containing 10% fetal calf serum. Cells were then centrifuged at 700 g for 5 min at room temperature. They were resuspended in serum-free RPMI 1640 culture medium containing L-Glutamine (2 mM), glucose (4.5 g/l), sodium pyruvate (1 mM) and buffered with HEPES (10 mM). Cells were counted and the number of viable NCI H460 cells was >99%. The number of cells was then adjusted to 25.10^6 cells/ml in serum-free medium.
NCI H460 cells (5.10^6 cells/mouse in 200 μL of serum-free medium) were then implanted subcutaneously in the right flank of each mouse.
At D12 post-implantation of the NCI H460 cells, the thirty mice were randomized into six groups of 5 mice. Tumor volumes had reached 228 to 468 mm^3 and mean tumor volumes were not statistically different between groups after randomization.
All solutions were injected IP.
Animals have been observed daily.
• Tumor growth curves were drawn using the mean tumor volumes (MTV), • Mean Relative tumor volume (MRTV) was calculated as the ratio between the MTV at time t and the volume at the time of injection (t=D12), • Tumor growth inhibition (T/C, %) was evaluated as the ratio of the median tumor volumes of treated groups versus vehicle group.
Statistical analyses of tumor volumes (V), time to reach ‘V’, tumor-doubling time (DT), relative tumor volume (RTV) and tumor growth inhibition (T/C) were performed for all groups. Data are expressed as mean±SD. Groups of data were normally distributed. Univariate analysis were performed to assess differences between groups. Statistical significance was then determined using the Student's t test. A P<0.05 was considered as statistically significant. The Statistical analysis was performed using XLSTAT (Addinsoft, France).

[3] = system: CALU-6 tumors; test: CALU-6 non-small cell lung cancer xenograft in Swiss Nude mice, tumor growth; assay type: in vivo; conditions: IP Q2DX8, CDDP 5 mg/kg (G2), 497C-T2 10 mg/kg (G3), 497C-T2 10 mg/kg + CDDP 5 mg/kg (G4)
Protocol: CALU-6 cells were cultured as adherent cells in complete EMEM medium (Ref. CM1MEM18-01, batch No. 462502, Eurobio, France) 10% fetal calf serum (FCS; Ref. CVFSVF00-01, batch No. 513021, Eurobio, France) under a 37° C., 5% CO2 humidified atmosphere. They were amplified in 75 cm^2-flasks to reach 90×10^6 cells.
At D0, CALU-6 cells (human lung carcinoma) were collected from 75 cm^2-flasks by removing the medium and adding 3 ml of trypsine-EDTA (Ref. CEZTDA00-0U, batch No. 633920, Eurobio, France). After 5 min of incubation at 37° C., cells had detached from the plastic and the enzymatic reaction was stopped by adding 3 ml of EMEM medium containing 10% fetal calf serum. Cells were then centrifuged at 700 g for 5 min at room temperature. They were resuspended in serum-free EMEM culture medium. Cells were counted and viability assessment by Trypan Blue exclusion (Ref. CSTCOL03-OU, batch No. 434511, Eurobio, France). The number of viable CALU-6 cells was >99%. The number of cells was then adjusted to 25×10^6 cells/ml in serum-free medium.
CALU-6 cells 5×10^6 cells/mouse in 200 μl of serum-free medium) were then implanted subcutaneously in the right flank of each mouse.
At D12 post-implantation of the CALU-6 cells, the thirty mice were randomized into six groups of 5 mice. Tumor volumes had reached 228 to 468 mm^3 and mean tumor volumes were not statistically different between groups after randomization.
Mean tumor volumes (MTV), mean relative tumor volume (MRTV) and tumor growth inhibition (T/C) were calculated as for example 7.

[4] = IP Q2DX8, CDDP 5 mg/kg (G2), 497C-T2 10 mg/kg (G3), 497C-T2 10 mg/kg + CDDP 5 mg/kg (G5)

Molecule: 497C-T5: d2 and e domains of the LEL domain of protein 497C, SEQ ID NO:6 (43 amino acids) (MNETDCNPQDLHNLTVAATKVNQKGCYDLVTSFMETNMGIIAG; listed as Homo sapiens)
- inhibition of endothelial cell migration [1]: very limited anti-migratory activity; also recorded: limited activities relative to that of 497C-T2

Molecule: 497C-T4: d1, d2 and e domains of the LEL domain of protein 497C, SEQ ID NO:5 (49 amino acids) (IPPSCCMNETDCNPQDLHNLTVAATKVNQKGCYDLVTSFMETNMGIIAG; listed as Homo sapiens)
- inhibition of endothelial cell migration [1]: less active than 497C-T2; also recorded: limited activities relative to that of 497C-T2

Molecule: N.N.[Cl][Pt][Cl] [Cisplatin, cis-diamineplatinum (II) dichloride, reference compound]
- reduction of tumor size compared to the vehicle-treated group 1 ([2]; D28, CDDP 5 mg/kg IP Q2DX8 (G2)): 68%
- DT (doubling time of tumor volume) [2, 4]: 5.12 ± 2.89 days and 5.12 days
- MRTV D14 [2, 4]: 1.59
- MRTV D16 [2, 4]: 1.74
- MRTV D18 [2, 4]: 2.30
- MRTV D20 [2, 4]: 2.29
- MRTV D22 [2, 4]: 3.39
- MRTV D24 [2, 4]: 3.67
- MRTV D26 [2, 4]: 3.67
- MRTV D28 [2, 4]: 4.88
- MTV at D14 [2, 4]: 513.35 mm^3
- MTV at D24 [2, 4]: 1083.74 mm^3
- MTV at D28 [2, 4]: 1440±1097 mm^3 and 1440.18 mm^3
- MRTV D12 ([2]; reference day, IP Q2DX8, CDDP 5 mg/kg (G2), 497C-T2 10 mg/kg (G3), 497C-T2 10 mg/kg + CDDP 5 mg/kg (G5)): 1.00
- MRTV D14 [3]: 3.11
- MRTV D16 [3]: 2.39
- MRTV D18 [3]: 2.66
- MRTV D20 [3]: 3.08
- MRTV D22 [3]: 3.70
- MRTV D24 [3]: 4.84
- MRTV D26 [3]: 4.11
- MRTV D28 [3]: 5.98
- MTV at D28 [3]: 742.44±215.85 mm^3
- MRTV D12 ([3]; reference day): 1

B1: 497C-T3: c, d1, d2 and e domains of the LEL domain of protein 497C, SEQ ID NO:4 (74 amino acids) (protein, listed as Homo sapiens)
chain: QRSLSCCGVQNYTNWSTSPYFLEHGIPPSCCMNETDCNPQDLHNLTVAATKVNQKGCYDLVTSFMETNMGIIAG
- inhibition of endothelial cell migration [1]: inhibited cell migration similarly to the protein 497C-T2; also recorded: almost as potent than 497C-T2
